Laboratory results published in patent publication US20180147183A1, “USE OF R-OXIRACETAM IN PHARMACEUTICAL FIELD” (Chongqing Runze Pharmaceutical Co., Ltd., priority 2015, published 2018).
Marks after values point to notes of the source that are not given here.

Legend:
[1] = tested on: Pentetrazol (PTZ) ignited rat epilepsy model; assay: Pentetrazol (PTZ)-ignited rat epilepsy model; assay type: in vivo, SD rats; conditions: for mortality rate / Numbers of deaths (Number): 10 days
Procedure: Rats were injected intraperitoneally with PTZ at a dose of 35 mg/kg (7 mg/ml, 0.5 ml/100 g body weight) for sub-convulsions three times weekly. The animals are weighed before each ip, and observed for behavioral changes after ip. within 1-2 h. Behavioral scoring was carried out according to the revised Racine score. Three consecutive occurrences of seizures of stage IV and above indicate successful ignition.
The animals successfully ignited were chosen to be grouped. The animals were randomly divided into 4 groups, 8-10/group. […] 3 times of clinical dose were chosen, that is, 500 mg/kg. […] The dosage is 1 ml/100 g, continuous intragastrical administration of 10 days. Specific dose settings are as follows:
PTZ 35 mg/kg. The animals are observed for behavioral changes within 2 h. Behavioral scoring was carried out according to the revised Racine score, continuous administration for 10 days, grading standards as mentioned above.
The seizures were recorded daily ip PTZ within 2 h. The seizure levels, latencies, mortality were recorded, and compared with the model control group.

[2] = tested on: lithium chloride-pilocarpine epilepsy model rat; assay: Lithium chloride-pilocarpine rat epilepsy model, prophylactic administration; assay type: in vivo, SD rats; conditions: 120 mg/kg for 7 days before modeling, 10 rats
Text: Stages: epileptic seizures evaluation are categorized by Racine Stages
Stage 0: no signs of any seizure;
Stage I: staring, head and face slightly trembling;
Stage II: head nodding or wet dog-like shaking;
Stage III: forelimb limit convulsions;
Stage IV: full-body ankylosing convulsions with a standing hind limb;
Stage V: full-body ankylosing clonic seizures with standing with fell;
Partial epilepsy seizure occurs when any one of Stage Ito Stage III appears;
Generalized epilepsy seizure occurs when Stage IV or Stage V appears;
Status epilepticus (SE) occurs when Stage IV or Stage V lasts 30 minutes.
The rat epilepsy models were treated with lithium chloride-pilocarpine and used levetiracetam as positive control. The duration of acute seizures of lithium chloride-pilocarpine epilepsy model rat was selected as the observation time, and prophylactic administration was used.
Animals were randomly divided into 4 groups, 10/group. Levetiracetam was selected as a positive control, 1.5 times of clinical dose were chosen, that is, 150 mg/kg. The clinical dose of an adult is 800 mg/times, twice daily, that is, 1600 mg/60 kg, 26.7 mg/kg. The dose of a rat is converted to 160 mg/kg according to body surface area. R-oxiracetam and levorotatory oxiracetam were selected half of the dose, that is, 80 mg/kg, and 1.5 times is 120 mg/kg. The dose was 1 ml/100 g, and the rats were treated with continuous administration for 7 days. As levetiracetam administration of 1.3 h (80 min), the plasma concentration peak, so we choose the last 80 minutes after the last administration of modeling. As administration of levetiracetam for 1.3 h (80 min), the plasma concentration peak was reached, so each group was selected after the last 80 minutes after the start of modeling.
Modeling method: After several previous test, the following modeling method was chosen: Animal ip. Lithium chloride 3 mmol/kg (1.5 ml/L) 127 mg/kg (12.7 mg/ml, 1 ml/100 g body weight), 24 h, 37.5 mg/kg pilocarpine three times ip. mg/kg (2.5 mg/ml, 0.5 ml/100 g body weight) at intervals of 10 minutes. […]

NC(=O)CN1C[C@H](O)CC1=O [R-oxiracetam, (R)-4-hydroxy-2-oxo-1-pyrrolidineacetamide]
Seizure latency (X ± SD) ([1]; High-dose 360 mg/kg daily, D1): 3.83 ± 1.17 m | occurrence rates of stage IV or above seizures ([1]; High-dose 360 mg/kg daily, D1): 4/6 (66.7) % | Seizure latency (X ± SD) ([1]; High-dose 360 mg/kg daily, D2): 5.00 ± 0.89 m | occurrence rates of stage IV or above seizures ([1]; High-dose 360 mg/kg daily, D2): 3/6(50.0) % | Seizure latency (X ± SD) ([1]; High-dose 360 mg/kg daily, D3): 6.17 ± 1.17 m | occurrence rates of stage IV or above seizures ([1]; High-dose 360 mg/kg daily, D3): 3/6 (50.0) % | Seizure latency (X ± SD) ([1]; High-dose 360 mg/kg daily, D4): 6.50 ± 1.05 m | occurrence rates of stage IV or above seizures ([1]; High-dose 360 mg/kg daily, D4): 2/6 (33.3) % | Seizure latency (X ± SD) ([1]; High-dose 360 mg/kg daily, D5): 7.17 ± 0.75 m | occurrence rates of stage IV or above seizures ([1]; High-dose 360 mg/kg daily, D5): 1/6 (16.7) % | Seizure latency (X ± SD) ([1]; High-dose 360 mg/kg daily, D6): 7.83 ± 0.75 m | occurrence rates of stage IV or above seizures ([1]; High-dose 360 mg/kg daily, D6): 1/6 (16.7) % | Seizure latency (X ± SD) ([1]; High-dose 360 mg/kg daily, D7): 8.33 ± 1.03 m | occurrence rates of stage IV or above seizures ([1]; High-dose 360 mg/kg daily, D7): 0/6** (0) % | Seizure latency (X ± SD) ([1]; High-dose 360 mg/kg daily, D8): 8.83 ± 0.98 m | occurrence rates of stage IV or above seizures ([1]; High-dose 360 mg/kg daily, D8): 0/6** (0) % | Seizure latency (X ± SD) ([1]; High-dose 360 mg/kg daily, D9): 8.83 ± 0.75 m | occurrence rates of stage IV or above seizures ([1]; High-dose 360 mg/kg daily, D9): 0/6* (0) % | Seizure latency (X ± SD) ([1]; High-dose 360 mg/kg daily, D10): 9.83 ± 0.75 m | occurrence rates of stage IV or above seizures ([1]; High-dose 360 mg/kg daily, D10): 0/6* (0) % | mortality rate ([1]; High-dose 360 mg/kg intragastric): 0% | Numbers of deaths (Number) ([1]; High-dose 360 mg/kg intragastric, 6 animals, 360 mg/kg): No animal died | Numbers of deaths (Number) ([1]; High-dose 360 mg/kg intragastric, 6 animals, listed as R-Oxiracetam, 360 mg/kg): 0 | Seizure latency (X ± SD) ([1]; Low-dose 120 mg/kg daily, D1): 3.57 ± 1.51 m | occurrence rates of stage IV or above seizures ([1]; Low-dose 120 mg/kg daily, D1): 4/7 (57.1) % | Seizure latency (X ± SD) ([1]; Low-dose 120 mg/kg daily, D2): 4.57 ± 1.72 m | occurrence rates of stage IV or above seizures ([1]; Low-dose 120 mg/kg daily, D2): 4/6(66.7) % | Seizure latency (X ± SD) ([1]; Low-dose 120 mg/kg daily, D3): 5.00 ± 1.15 m | occurrence rates of stage IV or above seizures ([1]; Low-dose 120 mg/kg daily, D3): 3/6 (50.0) % | Seizure latency (X ± SD) ([1]; Low-dose 120 mg/kg daily, D4): 4.86 ± 1.07 m | occurrence rates of stage IV or above seizures ([1]; Low-dose 120 mg/kg daily, D4): 2/6 (33.3) % | Seizure latency (X ± SD) ([1]; Low-dose 120 mg/kg daily, D5): 5.43 ± 0.98 m | occurrence rates of stage IV or above seizures ([1]; Low-dose 120 mg/kg daily, D5): 2/6 (33.3) % | Seizure latency (X ± SD) ([1]; Low-dose 120 mg/kg daily, D6): 6.29 ± 1.11 m | occurrence rates of stage IV or above seizures ([1]; Low-dose 120 mg/kg daily, D6): 2/6 (33.3) % | Seizure latency (X ± SD) ([1]; Low-dose 120 mg/kg daily, D7): 6.86 ± 1.07 m | occurrence rates of stage IV or above seizures ([1]; Low-dose 120 mg/kg daily, D7): 1/6* (16.7) % | Seizure latency (X ± SD) ([1]; Low-dose 120 mg/kg daily, D8): 7.14 ± 1.07 m | occurrence rates of stage IV or above seizures ([1]; Low-dose 120 mg/kg daily, D8): 1/6* (16.7) % | Seizure latency (X ± SD) ([1]; Low-dose 120 mg/kg daily, D9): 7.71 ± 0.76 m | occurrence rates of stage IV or above seizures ([1]; Low-dose 120 mg/kg daily, D9): 0/6* (0) % | Seizure latency (X ± SD) ([1]; Low-dose 120 mg/kg daily, D10): 8.43 ± 0.98 m | occurrence rates of stage IV or above seizures ([1]; Low-dose 120 mg/kg daily, D10): 0/6* (0) % | mortality rate ([1]; Low-dose 120 mg/kg intragastric): 14.3% | Numbers of deaths (Number) ([1]; Low-dose 120 mg/kg intragastric, 7 animals, 120 mg/kg): No animal died | Numbers of deaths (Number) ([1]; Low-dose 120 mg/kg intragastric, 7 animals, listed as R-Oxiracetam, 120 mg/kg): 1 | Latency Stage I [2]: 19.6 ± 4.4 min | Latency Stage II [2]: 34.7 ± 15.2 min | Latency Stage III [2]: 40.2 ± 12.1 min | Latency Stage IV [2]: 35.0 ± 2.8 min | Latency Stage V [2]: 38.0 ± 2.8 min | Number of Deaths [2]: 1 | Number of SE Animals [2]: 2 | Number of seizures Stage I [2]: 2.3 ± 1.2 times | Number of seizures Stage II [2]: 6.8 ± 3.7 times | Number of seizures Stage III [2]: 6.4 ± 3.6 times | Occurrence rate Stage I [2]: 10% | Occurrence rate Stage II [2]: 10% | Occurrence rate Stage III [2]: 5% | Occurrence rate Stage IV [2]: 2* % | Occurrence rate Stage V [2]: 2% | duration Stage IV [2]: 10.0 ± 1.4 min | duration Stage V [2]: 26.5 ± 0.7 min | number of animals having stage IV ([2]; P<0.05 vs model control): 20% | mortality rate ([2]; within 1 to 7 days after modeling): 10%
